Test results: the NIST ThermoML archive (doi:10.1016/j.jct.2015.03.021)

Columns and labels:
[1] = 101.33 kPa, Liquid, Vibrating tube method
[2] = relative permittivity at various frequencies (dimensionless); details: 100 kPa, Liquid, Frequency=1 MHz, Parallel plate capacitor
[3] = excess molar enthalpy (molar enthalpy of mixing); xn = mol fraction of the nth substance listed; details: 100 kPa, Liquid, Calvet calorimetry

CC(C)CCO [3-methylbutan-1-ol]
Details | mass density, [1] [kg/m3] | relative permittivity, [2]
298.15 K | 804.24 | 15.09
308.15 K | 796.95 | 13.73

CC(C)CCO [3-methylbutan-1-ol] + CCCCOCCCC
[3]
Details | excess molar enthalpy [kcal/mol]
298.15 K, x2 = 0.092 | 0.0552
298.15 K, x2 = 0.1608 | 0.0932
298.15 K, x2 = 0.2389 | 0.132
298.15 K, x2 = 0.3161 | 0.16
298.15 K, x2 = 0.3993 | 0.187
298.15 K, x2 = 0.4694 | 0.204
298.15 K, x2 = 0.5458 | 0.216
298.15 K, x2 = 0.6389 | 0.221
298.15 K, x2 = 0.7088 | 0.211
298.15 K, x2 = 0.776 | 0.194
298.15 K, x2 = 0.8626 | 0.154
298.15 K, x2 = 0.9423 | 0.0837
308.15 K, x2 = 0.0836 | 0.054
308.15 K, x2 = 0.1547 | 0.0951
308.15 K, x2 = 0.2348 | 0.138
308.15 K, x2 = 0.3248 | 0.176
308.15 K, x2 = 0.4249 | 0.202
308.15 K, x2 = 0.4894 | 0.22
308.15 K, x2 = 0.5775 | 0.228
308.15 K, x2 = 0.6519 | 0.226
308.15 K, x2 = 0.7302 | 0.214
308.15 K, x2 = 0.787 | 0.194
308.15 K, x2 = 0.8553 | 0.161
308.15 K, x2 = 0.9681 | 0.0564

CCC(O)CC [3-pentanol]
Details | mass density, [1] [kg/m3] | relative permittivity, [2]
298.15 K | 815.62 | 13.21
308.15 K | 806.9 | 11.39

CCC(O)CC [3-pentanol] + CCCCOCCCC
[3]
Details | excess molar enthalpy [kcal/mol]
298.15 K, x2 = 0.0979 | 0.0951
298.15 K, x2 = 0.1702 | 0.159
298.15 K, x2 = 0.2558 | 0.219
298.15 K, x2 = 0.3242 | 0.257
298.15 K, x2 = 0.4033 | 0.283
298.15 K, x2 = 0.4684 | 0.302
298.15 K, x2 = 0.5438 | 0.314
298.15 K, x2 = 0.6374 | 0.311
298.15 K, x2 = 0.7023 | 0.3
298.15 K, x2 = 0.7739 | 0.269
298.15 K, x2 = 0.8554 | 0.214
298.15 K, x2 = 0.9278 | 0.129
308.15 K, x2 = 0.0991 | 0.0968
308.15 K, x2 = 0.1692 | 0.157
308.15 K, x2 = 0.235 | 0.202
308.15 K, x2 = 0.3202 | 0.25
308.15 K, x2 = 0.3985 | 0.276
308.15 K, x2 = 0.5414 | 0.306
308.15 K, x2 = 0.6464 | 0.306
308.15 K, x2 = 0.7326 | 0.29
308.15 K, x2 = 0.811 | 0.246
308.15 K, x2 = 0.8986 | 0.182
308.15 K, x2 = 0.9603 | 0.0817

CCCCCO [pentan-1-ol]
Details | mass density, [1] [kg/m3] | relative permittivity, [2]
298.15 K | 810.89 | 15
308.15 K | 803.7 | 13.51

CCCC(C)O (configuration not stated) [pentan-2-ol]
Details | mass density, [1] [kg/m3] | relative permittivity, [2]
298.15 K | 806.11 | 13.54
308.15 K | 798 | 12.08

CCCC(C)O (configuration not stated) [pentan-2-ol] + CCCCOCCCC
[3]
Details | excess molar enthalpy [kcal/mol]
298.15 K, x2 = 0.0974 | 0.0839
298.15 K, x2 = 0.1685 | 0.136
298.15 K, x2 = 0.2474 | 0.185
298.15 K, x2 = 0.3335 | 0.225
298.15 K, x2 = 0.397 | 0.243
298.15 K, x2 = 0.5096 | 0.268
298.15 K, x2 = 0.549 | 0.27
298.15 K, x2 = 0.6386 | 0.268
298.15 K, x2 = 0.705 | 0.255
298.15 K, x2 = 0.7803 | 0.232
298.15 K, x2 = 0.8623 | 0.193
298.15 K, x2 = 0.9322 | 0.118
308.15 K, x2 = 0.0841 | 0.0758
308.15 K, x2 = 0.1634 | 0.138
308.15 K, x2 = 0.2305 | 0.182
308.15 K, x2 = 0.3156 | 0.225
308.15 K, x2 = 0.4161 | 0.264
308.15 K, x2 = 0.4834 | 0.284
308.15 K, x2 = 0.5759 | 0.288
308.15 K, x2 = 0.6314 | 0.286
308.15 K, x2 = 0.7299 | 0.265
308.15 K, x2 = 0.8144 | 0.234
308.15 K, x2 = 0.908 | 0.161
308.15 K, x2 = 0.964 | 0.0746
